# Results as given in patent US11124509B2, “Tri-substituted imidazoles for the inhibition of TGF beta and methods of treatment” (CLAVIUS PHARMACEUTICALS, LLC, priority 2017, dated 2021).
# Counter-ions that a name gives are not always drawn. Like-named read-outs stand apart in the source and are kept apart here.
# Columns and labels:
# TGFBR1 (ALK5) = TGFBR1 (ALK5) (Homo sapiens (Human), UniProt P36897); assay: LanthaScreen Eu Kinase Binding Assay TGFBR1 (ALK5) (ThermoFisher SelectScreen); conditions: read-out: TβRI (ALK5) Binding IC50
# Description: (§1) Exemplified compounds were confirmed to inhibit ALK5 activity in enzyme and cellular assays in the following assay systems conducted by ThermoFisher in Madison, Wis. according to their commercially available protocols.
# ThermoFisher SelectScreen™ Biochemical Kinase Profiling Service, LanthaScreen™Eu Kinase Binding Assay TGFBR1 (ALK5)
# Exemplified compounds were screened in 1% DMSO (final concentration) by 3-fold serial dilutions from 10,000 nM to 0.316 nM to produce an IC50 or at single concentrations of 10,000, 1000 and 100 nM according to the following protocol. To low volume, white 384-well plates (Greiner Cat #784207) add 160 nL 100× compound in 100% DMSO, 3.84 uL kinase buffer (50 mM HEPES, pH 7.5, 0.01% BRIJ-35, 10 mM MgCl2, 1 mM EGTA), 8 uL 2× kinase/antibody mixture in kinase buffer (final ALK5 concentration of 5 nM; final Eu-anti-GST antibody concentration of 2 nM), 4 uL 4× Tracer #178 in kinase buffer (final concentration of 5 nM). Gently shake the plates for 30 seconds and incubate at room temperature for 1 hour before reading fluorescence on a plate reader. Percent inhibition was determined compared to DMSO only control (maximal ALK5 tracer binding) and sigmoidal dose response curve fit yielded IC50 values as indicated in Table 2.
# [1] = system: TGF-beta 1 stimulated SBE-b1a HEK 293T cells; assay: GeneBLAzer beta-lactamase reporter, TGF-beta 1 stimulated SBE-b1a HEK 293T cell-based assay (ThermoFisher SelectScreen); conditions: TGF-beta 1 0.03 nM, 5 hours, inhibitor 10,000 nM to 0.316 nM, sigmoidal dose response curve fit, read-out: Cells (SBE_HEK293T) IC50
# Description: as §1
# ThermoFisher SelectScreen™ Cell-Based Pathway Profiling Service GeneBLAzer Beta-Lactamase (b1a) Reporter Technology—TGF-Beta 1 Stimulated SBE-b1a HEK 293T Cell-Based Assay
# SBE-b1a HEK 293T cells were thawed and re-suspended in Assay Media (OPTI-MEM, 0.5% dialyzed FBS, 0.1 mM NEAA, 1 mM Sodium Pyruvate, 100 U/mL/100 μg/mL Pen/Strep) to a concentration of 625,000 cells/mL. 32 μL of cell suspension (20,000 cells) was added to each well of a 384-well Poly-D-Lysine assay plate. Cells in Assay Media were incubated for 16-24 hours in the plate at 37° C./5% CO2 in a humidified incubator. 4 μL of a 10× serial dilution of ALK5 inhibitors (10x=100,000-3.16 nM) was added to appropriate wells of the plate and pre-incubated at 37° C./5% CO2 in a humidified incubator with cells for 30 minutes. Final concentration of inhibitor ranged from 10,000 nM to 0.316 nM. 4 μL of 10× TGF-beta 1 (final concentration of 0.03 nM) was added to wells containing the inhibitors. The plate was incubated for 5 hours at 37° C./5% CO2 in a humidified incubator. 8 μL of 1 μM Substrate Loading Solution was added to each well and the plate was incubated for 2 hours at room temperature before being read on a fluorescence plate reader. Percent inhibition was determined compared to DMSO only control (maximal TGF-beta 1 stimulation) and sigmoidal dose response curve fit yielded IC50 values as indicated in Table 2.
# [2] = 3-fold serial dilutions 10,000 nM to 0.316 nM, ALK5 5 nM, Tracer #178 5 nM, sigmoidal dose response curve fit
# [3] = compounds marked with an asterisk: evaluated at three concentrations, IC50 depicted as less than the lowest concentration producing >50% inhibition
# TGFBR1 (ALK5), sequence (P36897 34-503): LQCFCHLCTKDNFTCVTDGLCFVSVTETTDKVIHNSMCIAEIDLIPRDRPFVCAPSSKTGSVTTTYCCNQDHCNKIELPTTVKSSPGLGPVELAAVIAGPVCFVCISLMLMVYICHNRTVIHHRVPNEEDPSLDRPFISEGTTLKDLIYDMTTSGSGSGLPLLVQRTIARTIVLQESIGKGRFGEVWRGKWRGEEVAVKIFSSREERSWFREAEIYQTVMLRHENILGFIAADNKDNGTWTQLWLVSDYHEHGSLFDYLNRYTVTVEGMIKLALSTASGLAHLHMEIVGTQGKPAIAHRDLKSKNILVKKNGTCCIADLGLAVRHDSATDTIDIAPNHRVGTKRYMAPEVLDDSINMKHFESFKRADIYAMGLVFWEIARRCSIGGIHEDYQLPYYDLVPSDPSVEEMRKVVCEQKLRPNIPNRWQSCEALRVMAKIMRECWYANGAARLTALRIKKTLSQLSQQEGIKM
Compound,IC50 (TGFBR1 (ALK5); [2]) [nM],IC50 (TGFBR1 (ALK5); [3]) [nM],"IC50 ([1]; Homo sapiens, HEK-293T) [nM]",IC50 [1] [nM]
CC(C)n1ccc(-c2nc(CNc3cccc(F)c3)[nH]c2-c2ccc3ncc(C(N)=O)n3n2)n1 [Compound 34],49,,379,
"Cc1nc(-c2ccn(C)n2)c(-c2ccc3ncsc3c2)[nH]1 [Compound 44, 6-(2-methyl-4-(1-methyl-1H-pyrazol-3-yl)-1H-imidazol-5-yl)benzo[d]thiazole]",6.66,,37.4,
"N-((5-([1,2,4]triazolo[1,5-a]pyridin-6-yl)-4-(1-methyl-1H-pyrazol-3-yl)-1H-imidazol-2-yl)methyl)-4-chloroaniline hydrochloride [Compound 14]",,,,> 10000
"Cn1ccc(-c2nc(CNc3ccc(Cl)cc3)[nH]c2-c2ccc3ncnn3c2)n1 [Compound 12, N-((5-([1,2,4]triazolo[1,5-a]pyridin-6-yl)-4-(1-methyl-1H-pyrazol-3-yl)-1H-imidazol-2-yl)methyl)-4-chloroaniline hydrochloride]",,,> 10000,
"CC(C)n1ccc(-c2nc[nH]c2-c2ccc3nccnc3c2)n1 [Compound 53, 6-(4-(1-isopropyl-1H-pyrazol-3-yl)-1H-imidazol-5-yl)quinoxaline hydrochloride]",,< 1000,,
"Cn1ccc(-c2nc(C(N)=O)[nH]c2-c2ccc3ncsc3c2)n1 [Compound 62, 5-(benzo[d]thiazol-6-yl)-4-(1-methyl-1H-pyrazol-3-yl)-1H-imidazole-2-carboxamide]",45.8,,1130,
"CC(C)n1ccc(-c2nc(CNc3cccc(F)c3)[nH]c2-c2ccc3ncccc3c2)n1 [Compound 26, 3-fluoro-N-((4-(1-isopropyl-1H-pyrazol-3-yl)-5-(quinolin-6-yl)-1H-imidazol-2-yl)methyl)aniline hydrochloride]",,< 100,,
Cn1ccc(-c2nc[nH]c2-c2ccc3nccnc3c2)n1 [Compound 56],43.6,,1050,
CC(C)n1ccc(-c2nc(CNc3cc(F)ccc3F)[nH]c2-c2ccc3nccnc3c2)n1 [Compound 45],,< 100,323,
"Cn1ccc(-c2nc(CNc3ccccc3F)[nH]c2-c2ccc3ncnn3c2)n1 [Compound 2, N-((5-([1,2,4]triazolo[1,5-a]pyridin-6-yl)-4-(1-methyl-1H-pyrazol-3-yl)-1H-imidazol-2-yl)methyl)-2-fluoroaniline hydrochloride]",1370,,> 10000,
"CC(C)n1ccc(-c2nc(CNc3cc(F)cc(F)c3)[nH]c2-c2ccc3ncnn3c2)n1 [Compound 36, N-((5-([1,2,4]triazolo[1,5-a]pyridin-6-yl)-4-(1-isopropyl-1H-pyrazol-3-yl)-1H-imidazol-2-yl)methyl)-3,5-difluoroaniline hydrochloride]",103,,507,
Cn1ccc(-c2nc(-c3ccc(C(N)=O)cc3)[nH]c2-c2ccc3c(c2)OCO3)n1 [Compound 67],50,,,
"CC(C)n1ccc(-c2nc(CNc3cccc(F)c3)[nH]c2-c2ccc3nccnc3c2)n1 [Compound 22, 3-fluoro-N-((4-(1-isopropyl-1H-pyrazol-3-yl)-5-(quinoxalin-6-yl)-1H-imidazol-2-yl)methyl)aniline hydrochloride]",,< 100,1090,
N#Cc1cccc(NCc2nc(-c3ccn(C(F)F)n3)c(-c3ccc4nccnc4c3)[nH]2)c1 [Compound 47],6.6,,19.5,
CN(C)C(=O)c1ccc(-c2nc(-c3ccn(C)n3)c(-c3ccc4ncsc4c3)[nH]2)cc1 [Compound 66],285,,1360,
Cn1ccc(-c2nc[nH]c2-c2ccc3ncsc3c2)n1 [Compound 55],4.71,,132,
CC(C)n1ccc(-c2nc(CNc3ccc(Cl)c(Cl)c3)[nH]c2-c2ccc3nccnc3c2)n1 [Compound 51],260,,,
Cn1ccc(-c2nc(CNc3cccc(F)c3)[nH]c2-c2ccc3ncccc3c2)n1 [Compound 24],,< 200,1930,
Cn1ccc(-c2nc(-c3ccc(C#N)cc3)[nH]c2-c2ccc3nccnc3c2)n1 [Compound 42],,< 1000,,
N#Cc1ccc(-c2nc(-c3ccn(C(F)F)n3)c(-c3ccc4ncsc4c3)[nH]2)cc1 [Compound 60],71.7,,,
CC(C)n1ccc(-c2nc(CNc3cc(F)cc(F)c3)[nH]c2-c2ccc3nccnc3c2)n1 [Compound 39],,,53.6,
CC(C)n1ccc(-c2nc(-c3ccc(C(N)=O)cc3)[nH]c2-c2ccc3nccnc3c2)n1 [Compound 59],889,,,
CC(C)n1ccc(-c2nc(CNc3ccc(F)c(F)c3)[nH]c2-c2ccc3nccnc3c2)n1 [Compound 48],,< 100,,
CC(C)n1ccc(-c2nc(CNc3cc(F)cc(C#N)c3)[nH]c2-c2ccc3nccnc3c2)n1 [Compound 50],,,1070,

# Continued, in another order:
IC50 (TGFBR1 (ALK5); [2]) [nM],IC50 (TGFBR1 (ALK5); [3]) [nM],Compound,"IC50 ([1]; Homo sapiens, HEK-293T) [nM]",IC50 [1] [nM]
31.2,,CC(C)n1ccc(-c2nc(CNc3cccc(Cl)c3)[nH]c2-c2ccc3nccnc3c2)n1 [Compound 54],211,
,< 100,CC(C)n1ccc(-c2nc(CNc3cccc(F)c3)[nH]c2-c2ccc3ncc(C#N)n3n2)n1 [Compound 27],,
44.6,,"CNC(=O)c1ccc(-c2nc(-c3ccn(C)n3)c(-c3ccc4ncsc4c3)[nH]2)cc1 [Compound 64, 4-(5-(benzo[d]thiazol-6-yl)-4-(1-methyl-1H-pyrazol-3-yl)-1H-imidazol-2-yl)-N-methylbenzamide]",632,
,< 1000,"Cn1ccc(-c2nc(CNc3ccccc3F)[nH]c2-c2ccc3ncccc3c2)n1 [Compound 31, 2-fluoro-N-((4-(1-methyl-1H-pyrazol-3-yl)-5-(quinolin-6-yl)-1H-imidazol-2-yl)methyl)aniline hydrochloride]",8930,
,< 100,CC(C)n1ccc(-c2nc(CNc3cccc(C#N)c3)[nH]c2-c2ccc3ncnn3c2)n1 [Compound 28],757,
5.6,,Cn1ccc(-c2nc(-c3ccc(C(N)=O)cc3)[nH]c2-c2ccc3ncsc3c2)n1 [Compound 37],53.2,
78,,CC(C)n1ccc(-c2nc(CNc3cc(F)cc(C(N)=O)c3)[nH]c2-c2ccc3nccnc3c2)n1 [Compound 58],3920,
7.55,,NC(=O)c1ccc(-c2nc(-c3ccn(C(F)F)n3)c(-c3ccc4ncsc4c3)[nH]2)cc1 [Compound 61],65.3,
,< 100,CC(C)n1ccc(-c2nc(CNc3cccc(C#N)c3)[nH]c2-c2ccc3ncc(C(N)=O)n3n2)n1 [Compound 38],3180,
811,,"Cn1ccc(-c2nc(CNc3ccc(F)cc3)[nH]c2-c2ccc3ncnn3c2)n1 [Compound 8, N-((5-([1,2,4]triazolo[1,5-a]pyridin-6-yl)-4-(1-methyl-1H-pyrazol-3-yl)-1H-imidazol-2-yl)methyl)-4-fluoroaniline hydrochloride]",> 10000,
,< 100,CC(C)n1ccc(-c2nc(CNc3cccc(-n4cccn4)c3)[nH]c2-c2ccc3nccnc3c2)n1 [Compound 40],1050,
,< 200,"CC(C)n1ccc(-c2nc(CNc3ccccc3F)[nH]c2-c2ccc3ncccc3c2)n1 [Compound 33, 2-fluoro-N-((4-(1-isopropyl-1H-pyrazol-3-yl)-5-(quinolin-6-yl)-1H-imidazol-2-yl)methyl)aniline hydrochloride]",9120,
,< 1000,CC(C)n1ccc(-c2nc(CNc3ccc(Cl)c(F)c3)[nH]c2-c2ccc3nccnc3c2)n1 [Compound 49],,
3,,Fc1cc(F)cc(NCc2nc(-c3ccn(C4CC4)n3)c(-c3ccc4ncnn4c3)[nH]2)c1 [Compound 69],,
